Laboratory results as given in patent US12052991B2, “Substituted pyridinyloxybenzenes and salts thereof and use thereof as herbicidal agents” (Bayer Aktiengesellschaft, priority 2018, dated 2024).

Legend:
Type in all cases: in vivo
[1] = tested on: Digitaria sanguinalis (DIGSA); experiment: Herbicidal pre-emergence action, test C (Table C10); details: dosage 1280 g/ha; visual scoring after about 3 weeks; 100% = plants have died, 0% = like control plants
Description: (§1) Seeds of mono- and dicotyledonous weed plants were placed in plastic pots in sandy loam soil (doubly sown with one species each of mono- or dicotyledonous weed plants per pot) and covered with soil. The compounds of the invention, formulated in the form of wettable powders (WP) or as emulsion concentrates (EC), were then applied onto the surface of the covering soil as aqueous suspension or emulsion with addition of 0.5% additive at a water application rate of 600 liters per hectare (converted). After the treatment, the pots were placed in a greenhouse and kept under good growth conditions for the test plants. After about 3 weeks, the effect of the preparations was scored visually in comparison with untreated controls as percentages. For example, 100% activity=the plants have died, 0% activity=like control plants. Tables C1 to C12 below show the effects of selected compounds of the general formula (I) according to Table 1 on various harmful plants and an application rate corresponding to 1280 or 320 g/ha, which were obtained by the experimental procedure mentioned above.

Veronica persica (VERPE) [2] = experiment: Herbicidal pre-emergence action, test C (Table C12); details: dosage 1280 g/ha, visual scoring vs untreated controls
Description: as §1

[3] = tested on: Amaranthus retroflexus (AMARE); experiment: Herbicidal pre-emergence action, test C (Table C6); details: visual scoring after about 3 weeks, 100% = plants have died, 0% = like control plants
Description: as §1

Veronica persica (VERPE) [4] = experiment: Herbicidal post-emergence action (Table B12); details: visual rating about 3 weeks after treatment, 100% = plants have died, 0% = like control plants
Description: (§2) Seeds of mono- and dicotyledonous weed plants were placed in plastic pots in sandy loam soil (doubly sown with in each case one species of mono- or dicotyledonous weed plants per pot), covered with soil and cultivated in a greenhouse under controlled growth conditions. 2 to 3 weeks after sowing, the test plants were treated at the one-leaf stage. The compounds of the invention, formulated in the form of wettable powders (WP) or as emulsion concentrates (EC), were applied onto the green parts of the plants as aqueous suspension or emulsion with addition of 0.5% additive at a water application rate of 600 liters per hectare (converted). After the test plants had been kept in the greenhouse under optimum growth conditions for about 3 weeks, the activity of the preparations was rated visually in comparison to untreated controls. For example, 100% activity=the plants have died, 0% activity=like control plants. Tables B1 to B12 below show the effects of selected compounds of the general formula (I) according to Table 1 on various harmful plants and an application rate corresponding to 1280 or 320 g/ha, which were obtained by the experimental procedure mentioned above.

Setaria viridis (SETVI) = experiment: Herbicidal pre-emergence action, test C (Table C4); details: visual scoring after about 3 weeks, 100% = plants have died, 0% = like control plants
Description: as §1

[5] = tested on: Matricaria inodora (MATIN); experiment: Herbicidal pre-emergence action, test C (Table C7); details: dosage 1280 g/ha; visual scoring after about 3 weeks; 100% = plants have died, 0% = like control plants
Description: as §1

Stellaria media (STEME) [6] = experiment: Herbicidal post-emergence action (Table B8); details: dosage 1280 g/ha; visual rating about 3 weeks after treatment; 100% = plants have died, 0% = like control plants
Description: as §2

[7] = tested on: Amaranthus retroflexus (AMARE); experiment: Herbicidal post-emergence action (Table B6); details: dosage 1280 g/ha; visual rating about 3 weeks after treatment; 100% = plants have died, 0% = like control plants
Description: as §2

[8] = tested on: harmful plants ABUTH, AMARE, ECHCG, LOLRI, MATIN, POAAN, SETVI, STEME, ALOMY, DIGSA, KCHSC and VERPE; experiment: Herbicidal post-emergence action, summary of Tables B1-B12; details: application rate of 1280 or 320 g of active ingredient per hectare; summary in words
Description: as §2, with “controls.” for “controls. For example, 100% activity=the plants have died, 0% activity=like control plants. Tables B1 to B12 below show the effects of selected compounds of the general formula (I) according to Table 1 on various harmful plants and an application rate corresponding to 1280 or 320 g/ha, which were obtained by the experimental procedure mentioned above.”
(§3) For example, 100% activity=the plants have died, 0% activity=like control plants.
Tables B1 to B12 below show the effects of selected compounds of the general formula (I) according to Table 1 on various harmful plants and an application rate corresponding to 1280 or 320 g/ha, which were obtained by the experimental procedure mentioned above.
As the results of Tables B1-B12 show, compounds no.

[9] = tested on: Abutilon theophrasti (ABUTH); experiment: Herbicidal post-emergence action (Table B5); details: 1280 g/ha; rated visually after about 3 weeks; 100% = plants have died, 0% = like control plants
Description: as §2

Poa annua (POAAN) = experiment: Herbicidal pre-emergence action, test C (Table C3); details: dosage 1280 g/ha; visual scoring after about 3 weeks; 100% = plants have died, 0% = like control plants
Description: as §1

[10] = tested on: harmful plants ABUTH, AMARE, ECHCG, LOLRI, MATIN, POAAN, SETVI, STEME, ALOMY, DIGSA, KCHSC and VERPE; experiment: Herbicidal pre-emergence action (test C), summary of Tables C1-C12; details: application rate of 1280 or 320 g of active ingredient per hectare; summary in words
Description: as §1, with “percentages.” for “percentages. For example, 100% activity=the plants have died, 0% activity=like control plants. Tables C1 to C12 below show the effects of selected compounds of the general formula (I) according to Table 1 on various harmful plants and an application rate corresponding to 1280 or 320 g/ha, which were obtained by the experimental procedure mentioned above.”
as §3
Tables C1 to C12 below show the effects of selected compounds of the general formula (I) according to Table 1 on various harmful plants and an application rate corresponding to 1280 or 320 g/ha, which were obtained by the experimental procedure mentioned above.
As the results of Tables C1-C12 show, compounds no.

Stellaria media (STEME) [11] = experiment: Herbicidal pre-emergence action, test C (Table C8); details: visual scoring after about 3 weeks, 100% = plants have died, 0% = like control plants
Description: as §1

[12] = tested on: Abutilon theophrasti (ABUTH); experiment: Herbicidal pre-emergence action, test C (Table C5); details: dosage 1280 g/ha; visual scoring after about 3 weeks; 100% = plants have died, 0% = like control plants
Description: as §1

[13] = tested on: Digitaria sanguinalis (DIGSA); experiment: Herbicidal post-emergence action (Table B10); details: dosage 1280 g/ha; visual rating about 3 weeks after treatment; 100% = plants have died, 0% = like control plants
Description: as §2

SMILES | Pre-emergence action against Digitaria sanguinalis (DIGSA) [1] [%] | Pre-emergence action against Veronica persica (VERPE) (Veronica persica (VERPE) [2]) [%] | Pre-emergence action against Amaranthus retroflexus (AMARE) ([3]; dosage 320 g/ha) [%] | Pre-emergence action against Amaranthus retroflexus (AMARE) ([3]; dosage 1280 g/ha) [%] | Post-emergence action against Veronica persica (VERPE) (Veronica persica (VERPE) [4]; dosage 320 g/ha) [%] | Post-emergence action against Veronica persica (VERPE) (Veronica persica (VERPE) [4]; dosage 1280 g/ha) [%] | Pre-emergence action against Setaria viridis (SETVI) (Setaria viridis (SETVI); dosage 1280 g/ha) [%] | Pre-emergence action against Matricaria inodora (MATIN) [5] [%] | Post-emergence action against Stellaria media (STEME) (Stellaria media (STEME) [6]) [%] | Post-emergence action against Amaranthus retroflexus (AMARE) [7] [%] | herbicidal activity against the harmful plants of Tables B1-B12 in post-emergence treatment [8] | Post-emergence action against Abutilon theophrasti (ABUTH) [9] [%] | Pre-emergence action against Poa annua (POAAN) (Poa annua (POAAN)) [%] | herbicidal activity against the harmful plants of Tables C1-C12 in pre-emergence treatment [10] | Pre-emergence action against Setaria viridis (SETVI) (Setaria viridis (SETVI); dosage 320 g/ha) [%] | Pre-emergence action against Stellaria media (STEME) (Stellaria media (STEME) [11]; dosage 320 g/ha) [%] | Pre-emergence action against Stellaria media (STEME) (Stellaria media (STEME) [11]; dosage 1280 g/ha) [%] | Pre-emergence action against Abutilon theophrasti (ABUTH) [12] [%] | Post-emergence action against Digitaria sanguinalis (DIGSA) [13] [%]
Cc1ccc(-c2ccccc2Oc2ccc(Cl)cn2)nc1 [Example 1-80] | 100 | 100 | 100 | 100 | 100 | 100 | 100 | 90 | 100 | 100 | very good herbicidal activity | 100 | 90 | very good herbicidal activity | – | – | – | – | –
Cc1ccc(-c2cc(C(F)F)no2)c(Oc2ccccn2)c1 [Example 1-25] | – | 90 | 100 | 100 | – | – | 100 | 90 | 100 | – | very good herbicidal activity | 90 | 90 | very good herbicidal activity | 100 | 90 | 100 | 100 | 100
